Test results taken from ChEMBL document CHEMBL1124125, “6-(Alkylamino)-3-aryl-1,2,4-triazolo[3,4-a]phthalazines. A new class of benzodiazepine receptor ligands” (J Med Chem, 1988).

What was measured:
[1] = biological target: GABA-A receptor; anion channel; experiment: Inhibition of [3H]diazepam binding to GABA-A central benzodiazepine receptor of rat brain homogenate
[2] = Lethal dose when given intraperitoneally in mice; type: toxicity, organism-based; details: mouse, in vivo, ip
[3] = biological target: T1, GABA-A receptor; anion channel (Rattus norvegicus) (UniProt O09028+P15431+P18506+P18508+P19969+P20236+P23574+P23576+P28471+P28473+P30191+P62813+P63079+P63138+Q91ZM7+Q9ES14); experiment: GABA ratio (IC50/IC50 in the presence of 10e-4 GABA).; type: protein-complex assay
Mus musculus [4] = experiment: Inhibition of Anti-pentylenetetrazole-induced convulsions in mice following i.p. administration.; type: functional; details: ip
Mus musculus [5] = experiment: Dose that prevented tonic extensor seizures and death in 50% of the mice.(ip); type: functional
[6] = biological target: T1, GABA-A receptor; anion channel (Rattus norvegicus); experiment: Relative inhibition of [3H]diazepam binding to GABA-A receptor of rat forebrain in the presence and absence of GABA(10e-4M)
Mus musculus [7] = experiment: Activity was measured by rotarod test by intraperitoneal administration in mouse.; type: functional; details: ip
Mus musculus [8] = experiment: Anticonvulsant activity of the compound when lethal dose of strychnine given subcutaneously in mouse; type: ADME, organism-based; details: in vivo, sc
Mus musculus [9] = organism: Mus musculus; experiment: Anticonvulsant activity of the compound when maximal electroshock is induced in mouse; type: functional
Mus musculus [10] = experiment: Antagonism of Diazepam muscle relaxant effect by compound (60 mg/kg, ip) was measured as the ratio of fallen/treated mice.; type: functional

Row | Compound | Ki [1] [nM] | LD50 [2] [mg/kg] | Ratio [3] | ED50 (Mus musculus [4]) [mg/kg] | ED50 (Mus musculus [5]) [mg/kg] | other results
1 | CCN(C)c1nn2c(-c3ccccc3)nnc2c2ccccc12 | 14.4 | 300 | 1.1 | ≥ 50 |  | 
2 | CC(=O)Nc1ccc(-c2nnc3c4ccccc4c(N4CCCC4)nn23)cc1 | 36 | 600 | 1.1 | ≥ 100 |  | 
3 | COCCN(CCOC)c1nn2c(-c3cccc(C)c3)nnc2c2ccccc12 | 181 | 300 |  |  | > 100 | 
4 | CCOc1c(Br)cc(Br)cc1-c1nnc2c3ccccc3c(N3CCCC3)nn12 | > 3000 | 600 |  |  | > 100 | 
5 | CCCCNc1nn2c(-c3ccccc3)nnc2c2ccccc12 | 243 | 600 |  | ≥ 100 |  | 
6 | CCOc1cc(OCC)c(-c2nnc3c4ccccc4c(N4CCCC4)nn23)cc1OCC | > 3000 | 300 |  |  | > 50 | 
7 | c1ccc(-c2ccc(-c3nnc4c5ccccc5c(N5CCCC5)nn34)cc2)cc1 | > 3000 | 400 |  |  | > 75 | 
8 | CCNc1nn2c(-c3ccccc3)nnc2c2ccccc12 | 37.6 | 200 |  |  | > 50 | Ratio [6]: 0.9
9 | CC(C)Nc1nn2c(-c3ccccc3)nnc2c2ccccc12 | 306 | 400 |  |  | > 75 | 
10 | COCCN(CCOC)c1nn2c(-c3ccc(Cl)cc3)nnc2c2ccccc12 | 17 | 600 | 1.3 |  | 60.1 | 
11 | c1ccc(-c2nnc3c4ccccc4c(N4CCCCC4)nn23)cc1 | 16 | 600 | 1 | ≥ 100 |  | 
12 | COCCN(CCOC)c1nn2c(-c3ccc(F)cc3)nnc2c2ccccc12 | 20 | 600 | 1.5 | 60.1 |  | 
13 | Nc1nn2c(-c3ccccc3)nnc2c2ccccc12 | 243 | 600 |  | ≥ 100 |  | 
14 | COCCNc1nn2c(-c3ccc(OC)cc3)nnc2c2ccccc12 | 5.4 | 200 | 1.1 | ≥ 50 |  | 
15 | Cc1nnc2ccc(-c3cccc(C(F)(F)F)c3)nn12 [CI-218872] |  |  |  |  |  | ED50 (Mus musculus [7]): 10 mg/kg; ED50 (Mus musculus [8]): 30 mg/kg; ED50 (Mus musculus [9]): 30 mg/kg
16 | Oc1ccc(-c2nnc3c4ccccc4c(N4CCCC4)nn23)cc1 | 11 | 600 | 1.1 |  | > 100 | 
17 | O=[N+]([O-])c1cc(-c2nnc3c4ccccc4c(N4CCCC4)nn23)ccc1Cl | 908 | 200 |  |  | > 50 | 
18 | COc1cc(OC)c(-c2nnc3c4ccccc4c(N4CCCC4)nn23)cc1OC | 1930 | 300 |  |  | > 50 | 
19 | COc1ccc(-c2nnc3c4ccccc4c(N4CCCC4)nn23)cc1 | 3.9 | 600 | 1.1 |  | > 100 | Fallen/treated (Mus musculus [10]): 5
20 | COCCN(CCOC)c1nn2c(-c3cccc(Cl)c3)nnc2c2ccccc12 | 307 | 600 |  | ≥ 100 |  | 
21 | Brc1ccccc1-c1nnc2c3ccccc3c(N3CCCC3)nn12 | 760 | 600 |  |  | > 100 | 
22 | c1ccc(CNc2nn3c(-c4ccccc4)nnc3c3ccccc23)cc1 | 243 | 400 |  |  | > 75 | 
23 | CN(C)c1ccc(-c2nnc3c4ccccc4c(N4CCCC4)nn23)c(Cl)c1 | 393 | 600 |  |  | > 100 | 
24 | CC(C)(C)Nc1nn2c(-c3ccccc3)nnc2c2ccccc12 | 565 | 300 |  | ≥ 50 |  | 
